Data set [1] has as its system hippocampal neurons. The data set can be described thus: Histological analysis of brain (cresyl violet) seven days after ICV infusion. The data set is classed as in vivo, rats. The protocol: (§1) The animals used in this experiment were male F344 rats (Charles River Breeding Laboratories). The animals were housed individually, exposed to a 12-hour light-dark cycle, and allowed free access to food and water. The animals weighed approximately 250 g at the beginning of each experiment and were weighed daily. In addition, the animals were habituated to handling before each experiment.
(§2) Before administering various compounds, the animals were anesthetized with sodium pentobarbital (50 mg/kg, i.p.) and positioned in a sterotaxic instrument. A 26 gauge cannula was inserted into the cerebral ventricle at the following co-ordinates: 1.0 mm posterior to bregma, 1.5 mm lateral to the midline, and 4.0 mm below the dorsal surface of the neocortex. Cannulas were capped and fixed in place with dental cement. One week after cannulation, 10 µl of each of the treatment drugs was infused, ICV (i.e. into the ventricals of the brain), via a micropump at a rate of 10 µl/min. For this procedure, the animals were lightly restrained and unanesthetized. Following administration of the compound, the infusion cannula remained in position for one minute, after which the permanent in situ cannula was capped.
(§3) The compounds administered were obtained from a commercial supplier (Sigma Chemical Co., St. Louis, MO) and dissolved in saline prior to injection. These compounds included quisqualate (injected at doses ranging from 100 nmole/10 µl to 1 µmole/10 µl), lysocerebroside, and lysophingomyelin (which were injected at doses of 25 nmoles/10 µl to 150 nmoles/10 µl).
Seven days after the compounds were administered, animals were sacrificed by transcardial perfusion with neutralized, buffered 10% formalin-saline. Their brains were removed, post-fixed overnight in 10% formalin-saline, and sectioned along the coronal plane (into 50 µm thick sections) on a freezing microtome. The sections were stained with cresyl violet to determine the extent of cellular destruction. […]
Given that high concentrations of metabotropic receptors are located in the hippocampus, and that the hippocampus is particularly vulnerable to the effects of a variety of insults including ischemia and hypoxia, this region was examined for evidence of neuronal degeneration due to glutamate excitoxicity.

Data set [2] concerns hippocampal neurons. The data set is described as above. The data set is classed as in vivo. Particulars: Quisqualate 500 µmoles ICV, rats.
The test system of data set [3] is primary chick cortical neurons. The data set can be described thus: Phosphoinositide hydrolysis assay (InsP3 production) in cultured primary cortical neurons. The data set is classed as cell-based. Conditions: Gallus gallus, Cortical neurone, 20 min, read-out: Ins-P-n. As to the method:
The neurons were seeded in 24-well plastic tissue culture plates that had been coated with L-polylysine.
Receptor-stimulated and basal unstimulated hydrolysis of phosphoinositides was measured by the following procedure. […] The cells were then washed twice with 1 ml Dulbecco's phosphate-buffered saline (PBS) and 0.5 ml of PBS containing 4.5 g/L glucose was added. Sphingosine, psychosine, lysosulphatide, or lysosphingomyelin, prepared as the hydrochloride salt dissolved in water, were then added to produce the desired extracellular concentration in specific wells, […] The cells were then washed twice with 1 ml PBS, and pre-incubated for 15 minutes at 37°C with 0.5 ml PBS containing 10 mM LiCl and the compound to be tested was added. […] The tubes were vortexed thoroughly, then centrifuged at 500 x g for 5 minutes to separate the aqueous and chloroform phases. For each sample, a 1.5-ml aliquot of the upper (aqueous) phase was applied to a small column containing BioRad AG1X8 resin (formate form). Free [^3H]inositol and [^3H]glycerophosphoinositol were washed through the column with 5 ml of a solution containing 5 mM sodium borate and 60 mM sodium formate. The total phosphorylated [^3H] inositol fraction was eluted from the column for radiometric scintillation spectrometry analysis with 3 ml 1.0 M ammonium formate/0.1 M formic acid.
In addition, a 0.5 ml aliquot of the lower (chloroform) phase of each sample was analyzed radiometrically by scintillation spectrometry in order to determine the quantity of lipid-bound [^3H]myo-inositol. Estimation of phosphoinositide hydrolysis by phospholipase C is based upon the quantity of [^3H]inositol phosphates produced, and is expressed as the percentage of the latter relative to total free and componential [^3H]inositol (dpm ammonium formate + dpm chloroform fractions).

The subject of data set [4] is male F344 rats. The data set can be described thus: Behavioral analysis after ICV infusion (quisqualate excitotoxicity model). The data set is classed as in vivo. The protocol: as §1, §2, §3
(§4) Pilot studies identified several specific behavioral measures that could be used to indicate excessive activation of the metabotropic receptor (see Table 3). […] The experiments that follow were based on an analysis of these behaviors over a two hour period after administration of the compounds of the invention. Behavioral observation was carried out by two trained observers, who worked independently of one another and who were blind to the experimental groups. […] Frequency and duration means were computed by subtracting pre-infusion means from post-infusion means.
(§5) The experiment began one week after ICV cannulation. […] Following the baseline observation period, animals received the first of two ICV infusions (all infusions were of a 10 µl volume that was administered over a 1 minute period). For the first five groups listed above, this consisted of saline (10 µl/minute), for the following 3 groups the infusions were psychosine at 125 nmoles, lysosphingomyelin at 125 nmoles, or lysosphingomyelin at 150 nmoles, respectively. Thirty minutes later, all animals received the second infusion which, for the first five groups listed above, consisted of saline, quisqualate at 225 nmoles, psychosine at 125 nmoles, lysosphingomyelin at 125 nmoles, and lysosphingomyelin at 150 nmoles respectively. […] Following the second infusion animals were returned to their cages, and observed continuously over the subsequent 2 hours.

Experiment in data set [5]: as above
Type of data set: in vivo, rats. Conditions: rat, in vivo, icv or intrathecal, rats. The protocol: as §1, §2, §3, §4, §5

Entries after “also recorded” stand apart in the source; their conditions may differ. Read-outs that look alike come from different tables or passages of the source.

For the compound `N[C@@H](Cn1oc(=O)[nH]c1=O)C(=O)O` [Quisqualate, quisqualate], the “HISTOLOGICAL CHANGES” value in data set [1] (Quisqualate 100 nmoles ICV, rats) was “none observed”; in data set [1] (Quisqualate 150 nmoles ICV, rats), “none observed”; in data set [1] (Quisqualate 225 nmoles ICV, rats, seven days after) it was “loss of CA1 pyramidal neurons in the hippocampus”; in data set [1] (Quisqualate 225 nmoles ICV, rats, seven days after, listed as quisqualate), “severe loss of neurons in the hippocampus; also recorded: a considerable loss of CA1 pyramidal neurons in the hippocampus”; in data set [1] (Quisqualate 250 nmoles ICV, 'as above' = loss of neurons in the piriform and entorhinal cortex, CA1 and dentate gyrus regions of the hippocampus, listed as quisqualate), “severe loss of neurons in the hippocampus”; in data set [2], “loss of neurons in the piriform and entorhinal cortex. CA1 and dentate gyrus regions of the hippocampus”. In data set [3], the fold induction at 100 µM stood at 3 ± 0.05. Moreover, the “effective dose (to produce behavioral and histological changes)” value in data set [4] (ICV, rats, pilot testing) is listed as 225 nmoles. Also, the BEHAVIOR entry in data set [4] (Quisqualate 100 nmoles ICV, rats, reflex score 0 normal, 3 severely abnormal) is “-teeth chatter; also recorded: -mild scratching; also recorded: -hind leg weakness 60 minutes; also recorded: -normal placement and clasp reflex (0)”; in data set [4] (Quisqualate 150 nmoles ICV, rats, reflex score 0 normal, 3 severely abnormal) it was “-teeth chatter; also recorded: -localized twitches; also recorded: -mild hyperactivity walking in circles; also recorded: -hind leg weakness for 60 minutes; also recorded: -normal placement and clasp reflex (0)”; in data set [4] (Quisqualate 150 nmoles ICV, rats, reflex score 0 normal, 3 severely abnormal, listed as quisqualate), “an increase in activity and teeth chattering”; in data set [4] (Quisqualate 200 nmoles ICV, rats, reflex score 0 normal, 3 severely abnormal), “-teeth chatter; also recorded: -occasional mild convulsions; also recorded: -hyperactivity - circle walking; also recorded: -episodic akinesia/tonic immobility; also recorded: -hind leg weakness; also recorded: -normal limb clasp and placement reflex (0)”; in data set [4] (Quisqualate 225 nmoles ICV, rats, reflex score 0 normal, 3 severely abnormal), “moderate convulsions”; in data set [4] (Quisqualate 250 nmoles ICV, rats, reflex score 0 normal, 3 severely abnormal) it was “-localized spasms jerking/twitching; also recorded: -full body convulsions-severe/repeated; also recorded: -foaming at mouth; also recorded: -respiratory distress; also recorded: -abnormal placement and clasp reflex (3); also recorded: -vocalization; also recorded: -teeth chattering; also recorded: -scratching”. Moreover, the BEHAVIOR entry in data set [4] (Quisqualate 250 nmoles ICV, rats, reflex score 0 normal, 3 severely abnormal, listed as quisqualate) is “severe convulsions and death”; in data set [4] (Quisqualate 1 µmoles ICV, rats) it was “-severe repeated full body convulsions; also recorded: -severe scratching; also recorded: -severe teeth chattering; also recorded: -foaming at mouth”; in data set [4] (Quisqualate 500 µmoles ICV, rats), “vocalization”. For the same compound, the “death, cases” value in data set [4] (Quisqualate 225 nmoles ICV, rats) was “-death in 60% of cases”. The time to death in data set [4] (Quisqualate 1 µmoles ICV, rats) is 5 to 15 min. In data set [4] (quisqualate alone 225 nmoles vs lysosphingolipids alone and vs quisqualate 225 nmoles + lysophingomyelin 150 nmoles, Fig. 9), the “duration of teeth chattering, akinesia and mobilization” value is recorded as “significantly (p< .01) more time engaged in these behaviors”. Moreover, in data set [4] (quisqualate alone at 225 nmoles ICV compared to all other groups, 2 hours observation, Fig. 8), the number of convulsions/spasms entry is reported as “significantly (p.<01) more convulsions/spasms”. Also, the mortality was found to be 60% in data set [5] (225 nmol, Quisqualate 225 nmoles ICV, read-out: death, cases); 75% in data set [5] (250 nmol, Quisqualate 250 nmoles ICV, read-out: death, cases); 100% in data set [5] (Quisqualate 1 µmoles ICV, read-out: dead, cases).

The record behind these values is patent EP1488698A1, “Compositions for descreasing intracellular inositol trisphosphate concentration and uses thereof” (priority 1995, dated 1997).
